Assay results from US20240140938A1, “PREPARATION OF TETRAHYDROINDAZOLE DERIVATIVES AS NOVEL DIACYLGLYCERIDE O-ACYLTRANSFERASE 2 INHIBITORS” (MERCK SHARP & DOHME LLC, priority 2020, published 2024).

Each molecule was assayed against human DGAT2 (hDGAT2) (Homo sapiens (Human), UniProt Q96PD7) (assay: DGAT2 Enzymatic Activity Assay). Conditions: hDGAT2 Sf-9 membrane prep; 13C18-triolein product by LC/MS/MS; 25 μM diolein, 5 μM 13C oleoyl-CoA.
Type: biochemical
In short: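 Enzyme source was membrane fractions from Sf-9 cells infected with untagged hDGAT2 baculovirus. Reactions ran at room temperature, and product 13C18-triolein was quantified by LC/MS/MS against a 13C21-triolein internal standard. % inhibition was normalised to high and low controls, and IC50 derived from it.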

Chain of human DGAT2 (hDGAT2) (Q96PD7 whole entry): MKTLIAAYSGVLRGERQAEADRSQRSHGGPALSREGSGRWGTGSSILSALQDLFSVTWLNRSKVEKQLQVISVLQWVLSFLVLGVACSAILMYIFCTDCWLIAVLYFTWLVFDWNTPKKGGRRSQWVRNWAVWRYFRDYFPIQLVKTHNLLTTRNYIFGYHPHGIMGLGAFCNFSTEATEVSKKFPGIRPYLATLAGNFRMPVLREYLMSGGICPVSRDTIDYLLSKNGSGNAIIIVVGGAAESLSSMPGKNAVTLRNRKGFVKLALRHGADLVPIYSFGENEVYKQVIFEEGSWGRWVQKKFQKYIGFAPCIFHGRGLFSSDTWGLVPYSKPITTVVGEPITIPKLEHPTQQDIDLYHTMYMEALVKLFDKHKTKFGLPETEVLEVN

| IC50 | SMILES |
| --- | --- |
| 204 nM | CC(C)n1nc(-c2cncc(OC(F)(F)C(F)F)c2)c2c1C[C@H](C(=O)NC1(C)CCS(=O)(=O)CC1)CC2 [Example 106, (R)-1-isopropyl-N-(4-methyl-1,1-dioxidotetrahydro-2H-thiopyran-4-yl)-3-(5-(1,1,2,2-tetrafluoroethoxy)pyridin-3-yl)-4,5,6,7-tetrahydro-1H-indazole-6-carboxamide] |
| 68.1 nM | CC1(NC(=O)[C@@H]2CCc3c(-c4cc(OC(F)F)ccc4F)nn(S(=O)(=O)C4CC4)c3C2)CS(=O)(=O)C1 [Example 116, (R)-1-(cyclopropylsulfonyl)-3-(5-(difluoromethoxy)-2-fluorophenyl)-N-(3-methyl-1,1-dioxidothietan-3-yl)-4,5,6,7-tetrahydro-1H-indazole-6-carboxamide] |
| 5.8 nM | CC(C)n1nc(-c2cc(OC(F)F)ccc2F)c2c1CC(C(=O)N[C@@]1(C)CCS(=O)(=O)C1)CO2 (stereo partly drawn) [Example 122, 3-(5-(difluoromethoxy)-2-fluorophenyl)-1-isopropyl-N-((S)-3-methyl-1,1-dioxidotetrahydrothiophen-3-yl)-1,5,6,7-tetrahydropyrano[3,2-c]pyrazole-6-carboxamide] |
| 24.3 nM | CC(C)n1nc(-c2cc(OC(F)F)ccc2F)c2c1CC(C(=O)N[C@]1(C)CCS(=O)(=O)C1)CO2 (stereo partly drawn) [Example 123, 3-(5-(difluoromethoxy)-2-fluorophenyl)-1-isopropyl-N-((R)-3-methyl-1,1-dioxidotetrahydrothiophen-3-yl)-1,5,6,7-tetrahydropyrano[3,2-c]pyrazole-6-carboxamide] |
| 22.2 nM | CC(C)n1nc(-c2cccc(C3CC3)c2)c2c1C[C@H](C(=O)NC1(C)CS(=O)(=O)C1)CO2 [Example 125, (S)-3-(3-cyclopropylphenyl)-1-isopropyl-N-(3-methyl-1,1-dioxidothietan-3-yl)-1,5,6,7-tetrahydropyrano[3,2-c]pyrazole-6-carboxamide] |
| 343 nM | CC(C)n1nc(-c2cc(OC(F)F)ccc2F)c2c1C[C@H](C(=O)NC1(C)CS(=O)(=O)C1)OC2 [Example 127, (R)-3-(5-(difluoromethoxy)-2-fluorophenyl)-1-isopropyl-N-(3-methyl-1,1-dioxidothietan-3-yl)-1,4,6,7-tetrahydropyrano[4,3-c]pyrazole-6-carboxamide] |
| 320 nM | CC(C)n1nc(-c2cc(C3CC3)ccc2F)c2c1C[C@H](C(=O)NC1(C)CS(=O)(=O)C1)OC2 [Example 128, (R)-3-(5-cyclopropyl-2-fluorophenyl)-1-isopropyl-N-(3-methyl-1,1-dioxidothietan-3-yl)-1,4,6,7-tetrahydropyrano[4,3-c]pyrazole-6-carboxamide] |

Same assay, conditions: unit given as nm; hDGAT2 Sf-9 membrane prep; 13C18-triolein product by LC/MS/MS

| IC50 | SMILES |
| --- | --- |
| 108 nM | CC1(NC(=O)[C@@H]2CCc3c(-c4cc(OC(F)F)ccc4F)nn(S(C)(=O)=O)c3C2)CS(=O)(=O)C1 [Example 115, (R)-3-(5-(difluoromethoxy)-2-fluorophenyl)-N-(3-methyl-1,1-dioxidothietan-3-yl)-1-(methylsulfonyl)-4,5,6,7-tetrahydro-1H-indazole-6-carboxamide] |
| 499 nM | CC1(NC(=O)C2Cc3c(c(-c4cccc(OC(F)F)c4)nn3C3CCOCC3)C(F)(F)C2)CCS(=O)(=O)C1 (stereo not shown) [Example 117, 3-(3-(difluoromethoxy)phenyl)-4,4-difluoro-N-(3-methyl-1,1-dioxidotetrahydrothiophen-3-yl)-1-(tetrahydro-2H-pyran-4-yl)-4,5,6,7-tetrahydro-1H-indazole-6-carboxamide] |
| 0.44 nM | CC1(NC(=O)C2COc3c(-c4cccc(OC(F)F)c4)nn(-c4ccc(F)cn4)c3C2)CCS(=O)(=O)C1 (stereo not shown) [Example 118, 3-(3-(difluoromethoxy)phenyl)-1-(5-fluoropyridin-2-yl)-N-(3-methyl-1,1-dioxidotetrahydrothiophen-3-yl)-1,5,6,7-tetrahydropyrano[3,2-c]pyrazole-6-carboxamide] |
